In PMC9221018, “Sulfonamide-Derived Dithiocarbamate Gold(I) Complexes Induce the Apoptosis of Colon Cancer Cells by the Activation of Caspase 3 and Redox Imbalance” (Biomedicines, 2022):
Like-named read-outs stand apart in the source and are kept apart here.

What was measured:
[1] = test system: Caco-2 cells; experiment: MTT cytotoxicity assay in undifferentiated Caco-2 cells; format: cell-based, human
Protocol: (§1) The human Caco-2 cell line (TC7 clone) was kindly provided by Dr. Edith Brot-Laroche (Université Pierre et Marie Curie-Paris 6, UMR S 872, Les Cordeliers, France). Human epithelial fibroblast cells (NHDF-Ad, Lonza®®, Porriño, Spain) were kindly provided by Dr. Gracia Mendoza (Aragon Health Research Institute, IIS Aragón, Spain). Caco-2 cells (passages 40–70) and fibroblasts (passages 10–30) were maintained in a humidified atmosphere of 5% CO2 at 37 °C and grown in medium following the method used by Quero et al.. The Caco-2 cells were sub-cultured in 25 cm^2 plastic flasks at a density of 1.2 × 10^4 cells/cm^2, while the fibroblasts were sub-cultured on 75 cm^2 plastic flasks at a density of 1 × 10^4 cells/cm^2. The culture medium was replaced every 2 days.
(§2) The gold complexes were diluted in dimethyl sulfoxide (DMSO) as a 10 mM stock solution, and then diluted in cell culture medium at the desired concentrations.
(§3) For the cytotoxicity screening assays, Caco-2 cells were seeded in 96-well plates at a density of 4 × 10^3 cells/well. The culture medium was replaced with medium containing the drug panel 24 h post-seeding, and the cells were incubated for 24, 48 and 72 h. […] In differentiated Caco-2 and fibroblasts, culture medium containing metal gold complexes was added 15 days post-seeding, and the cells were incubated for 72 h. The antiproliferative effect was measured using an MTT assay, as previously described by Mármol et al.. The absorbance at 540/620 nm was measured using a SPECTROstar Nano (BMG Labtech, Ortenberg, Germany). In order to determine the selectivity index (SI), the IC50 value of the differentiated Caco-2 cells was divided by IC50 value in undifferentiated Caco-2, obtaining the ratio of the normal/cancerous cells’ toxicity.

[2] = n-octanol-water distribution coefficient, shake-flask method; format: physicochemical; settings: n-octanol/buffered saline pH 7.4, shake-flask
Protocol: The n-octanol−water coefficients of the complexes were determined using a shake-flask method, as reported previously. Briefly, 100 mL buffered-saline (0.15 M NaCl, 10 mM phosphate [PO4^3−] buffer, pH 7.4) and 100 mL n-octanol were shaken for 72 h. The addition of 1 mg of the complexes followed by the centrifugation and separation of both phases gave two solutions, which were analysed by UV absorbance spectroscopy to determine their concentration in each phase. The corresponding value of log P was defined as log{[compound(organic)]/[compound(aqueous)]}.

[3] = test system: Human epithelial fibroblast cells (NHDF-Ad); experiment: MTT viability assay in human epithelial fibroblasts; format: cell-based; settings: complexes at their IC50 (1 1.14 μM, 3 1.7 μM, 8 7.22 μM, 9 8.56 μM), 72 h
Protocol: as §1, §2, §3

[4] = test system: differentiated Caco-2 cells; experiment: MTT cytotoxicity assay in differentiated Caco-2 cells (healthy cell model); format: cell-based, human; settings: for decrease of cell viability: complexes at their IC50 (1 1.14 μM, 3 1.7 μM, 8 7.22 μM, 9 8.56 μM), 72 h; for IC50: treatment for 72 h
Protocol: as §1, §2, §3

[5] = treatment for 72 h, read-out: IC50
[6] = 24 h incubation, read-out: IC50 24 h
[7] = 48 h incubation, read-out: IC50 48 h
[8] = 72 h incubation, read-out: IC50 72 h

Molecule | IC50 [1, 5] | Log P7.4 [2] | IC50 [1, 6] | IC50 [1, 7] | IC50 [1, 8] | decrease of cell viability [3] | decrease of cell viability [4] | IC50 [4]
Cc1ccc(S(=O)(=O)NC(=S)[S][Au][PH](c2cccc(S(=O)(=O)[O-])c2)(c2cccc(S(=O)(=O)[O-])c2)c2cccc(S(=O)(=O)[O-])c2)cc1.[Na+].[Na+].[Na+] [Complex 5, [Au(S2CNHSO2-p-Me-C6H4)(TPPTS)]] | 31.8 ± 6.05 µM | −0.78 | – | – | – | – | – | –
C#CCn1ccn(C)[c]1=[Au-].O=S(=O)(NC(=S)[S-])c1ccccc1 [Complex 7, [Au(S2CNHSO2C6H5)(IMePropargyl)]] | 33.3 ± 5.01 µM | 0.35 | – | – | – | – | – | –
C#CCn1ccn(Cc2ccccc2)[c]1=[Au-].O=S(=O)(NC(=S)[S-])c1ccccc1 [Complex 9, [Au(S2CNHSO2C6H5)(IBnPropargyl)]] | 8.56 ± 1.68 µM | 0.42 | 31.2 ± 6.85 µM | 15.5 ± 1.89 µM | 8.56 ± 1.68 µM | approximately 39% | approximately 39% | 19.5 ± 2.64 µM
[Au(S2CNHSO2-p-Cl-C6H4)(PPh3)] [Complex 3] | 1.7 ± 0.15 µM | 0.91 | 2.48 ± 0.14 µM | 1.51 ± 0.1 µM | 1.7 ± 0.15 µM | did not compromise the viability | did not compromise the viability | 14.3 ± 0.19 µM
[Au(S2CNHSO2-p-Cl-C6H4)(TPPTS)] [Complex 6] | 33.7 ± 2.74 µM | −0.83 | – | – | – | – | – | –
[Au(S2CNHSO2-p-Me-C6H4)(IBnPropargyl)] [Complex 10] | 13.2 ± 3.34 µM | – | – | – | – | – | – | –
[Au(S2CNHSO2-p-Me-C6H4)(PPh3)] [Complex 2] | 1.25 ± 0.35 µM | 0.71 | – | – | – | – | – | –
[Au(S2CNHSO2C6H5)(TPPTS)] [Complex 4] | 46.7 ± 5.61 µM | −0.40 | – | – | – | – | – | –
